Values after ≈ are worked out from the molar mass of the structure shown. Active and inactive are the calls of the source. The rule behind the calls is not given here.
What was measured:
[1] = Cytotoxicity against human MOLT4 cells assessed as cell growth inhibition after 24 hrs by MTT assay; type: cell-based; conditions: MOLT-4 cells
[2] = tested on: MOLT-4; test: Reduction in membrane fluidity in human MOLT4 cells assessed as fluorescence polarization of DPH by spectrophotofluorometry; type: functional, cell-based
[3] = tested on: MOLT-4; test: Inhibition of HIV1 envelope Env-dependent cell fusion in JurkatHXBc2 cells expressing Env co-cultured with 1 hr at compound treated PKH67-labelled human MOLT4 cells at 1:1 ratio for 24 hrs by flow cytometry; type: cell-based; conditions: Human immunodeficiency virus 1
[4] = tested on: Human immunodeficiency virus 1; test: Antiviral activity against HIV1 NL4.3 infected in human PHA-blast cells from PBMC assessed as reduction in viral production measured as p24 protein expression cells pretreated for 1 hr with compound at 1 to 5 ug/ml and washed 1 hr after infection measured at day 4 post infection by ELISA; type: functional, organism-based
[5] = Cytotoxicity against human TZM-bl cells assessed as cell growth inhibition at 1 to 10 ug/ml washout after 1 hr measured at 24 hrs by MTT assay; type: cell-based
[6] = Cytotoxicity against human PHA-blast cells from CBMC assessed as cell growth inhibition at 1 to 10 ug/ml washout after 1 hr measured at 24 hrs by MTT assay; type: cell-based
[7] = tested on: Human immunodeficiency virus 1; test: Antiviral activity against HIV1 NL4.3 infected in human PHA-blast cells from PBMC assessed as reduction in viral production measured as p24 protein expression cells pretreated for 1 hr with compound at 1 to 5 ug/ml and washed 1 hr after infection measured at day 4 post infection by flow cytometry; type: functional, organism-based
[8] = tested on: HEK-293T; test: Suppression of syncytial formation in HIV1 envelope Env-GFP expressing HEK293T cells co-cultured with 1 hr at up to 5 ug/ml compound treated human TZM-bl cells by fluorescent microscopy; type: cell-based; conditions: Human immunodeficiency virus 1
[9] = tested on: MOLT-4; test: Inhibition of HIV1 envelope Env-dependent cell fusion in JurkatHXBc2 cells expressing Env co-cultured with 1 hr at compound treated PKH67-labelled human MOLT4 cells at 1:1 ratio for 24 hrs by fluorescent microscopy; type: cell-based; conditions: Human immunodeficiency virus 1
[10] = tested on: MOLT-4; test: Cytotoxicity against human MOLT4 cells assessed as cell growth inhibition at 1 to 10 ug/ml washout after 1 hr measured at 24 hrs by MTT assay; type: cell-based
[11] = tested on: PBMC; test: Cytotoxicity against human PHA-blast cells from PBMC assessed as cell growth inhibition at 1 to 10 ug/ml washout after 1 hr measured at 24 hrs by MTT assay; type: cell-based
[12] = tested on: MOLT-4; test: Cytotoxicity against human MOLT4 cells assessed as cell growth inhibition up to 20 ug/ml washout after 1 hr measured at 24 hrs by MTT assay; type: cell-based; conditions: molt-4, 1 h

SMILES: COc1ccc2cc1Oc1ccc(cc1)C[C@H]1c3c(cc4c(c3Oc3cc5c(cc3OC)CCN(C)[C@@H]5C2)OCO4)CCN1C [CEPHARANTHINE]
- CC50 at 24 h [1]: 10 µg/mL (≈ 16.5 µM)
- Activity [2]: Dose-dependent effect
- inhibition [3]: Dose-dependent effect
- inhibition [4]: Active
- Activity [5]: Non-toxic
- Activity [6]: Non-toxic
- inhibition [7]: Active
- Activity [8]: Active
- inhibition [9]: Dose-dependent effect
- Activity [10]: Non-toxic
- Activity [11]: Non-toxic
- Activity [12]: Non-toxic
